Laboratory results as given in publication PMC11850406, “Large-scale screening of HIV-1 T-cell epitopes restricted by 12 prevalent HLA-A allotypes in Northeast Asia and universal detection of HIV-1-specific CD8^+ T cells” (Frontiers in Microbiology, 2025).
Read-outs that look alike come from different tables or passages of the source. Where no end group is shown, it is not given here.

Assays:
HLA-A0201 = target: T1, HLA-A0201 (Homo sapiens, UniProt P04439, D140Y/D185E/D98H/E176V/E277Q/G131W/G231S/I119V/I121R/I166T/I218V/L300P/L318F/N151K/N90K/P208A/P217A/Q86G/Q94H/R138H/R169H/T345S); experiment: cell-based; format: binding; settings: for inhibition at 5 µM: read-out: 5-μM inhibition (%); for inhibition at 15 µM: read-out: 15-μM inhibition (%)
T1 construct: expressed in transfected cells; host or cells: HMy2.CIR

HLA-A0203 = target: T2, HLA-A0203 (Homo sapiens, UniProt P04439, A173T/D140Y/D185E/D98H/E277Q/G131W/G231S/I119V/I121R/I166T/I218V/L180W/L300P/L318F/N151K/N90K/P208A/P217A/Q86G/Q94H/R138H/R169H/T345S); experiment: cell-based; format: binding; settings: for inhibition at 5 µM / inhibition at 15 µM: 24 h; for inhibition at 5 µM: read-out: 5-μM inhibition (%); for inhibition at 15 µM: read-out: 15-μM inhibition (%)
T2 construct: expressed in transfected cells; host or cells: HMy2.CIR

HLA-A2402 = HLA-A2402 (Homo sapiens, UniProt P04439, D101N/D140Y/D185E/E176V/E190D/F33S/G103R/G107R/I119L/I121M/I306V/K335N/L105A/L180Q/L300P/N151K/N90K/Q86E/Q94H/R106L/R138H/R89G/T104I/T345S/V100E/W191G/Y123F); experiment: cell-based; format: binding; settings: for inhibition at 5 µM / inhibition at 15 µM / 5-μM inhibition (%) / 15-μM inhibition (%): A2402, 24 h, 4°C, flow cytometry; for inhibition at 5 µM / 5-μM inhibition (%): peptide 5 μM vs FITC-labeled reference peptide 300 nM; for inhibition at 15 µM / 15-μM inhibition (%): peptide 15 μM vs FITC-labeled reference peptide 300 nM
HLA-A1101 = target: T3, HLA-A1101 (Homo sapiens, UniProt P04439, A114D/D185E/E176A/F33Y/L180Q/S129P/T187R); experiment: cell-based; format: binding; settings: for 5-μM inhibition (%) / inhibition at 5 µM: peptide 5 μM vs FITC-labeled reference peptide 300 nM; for 5-μM inhibition (%) / 15-μM inhibition (%) / inhibition at 5 µM / inhibition at 15 µM: 24 h, 4°C, flow cytometry; for 15-μM inhibition (%) / inhibition at 15 µM: peptide 15 μM vs FITC-labeled reference peptide 300 nM; for inhibition at 5 µM: read-out: 5-μM inhibition (%); for inhibition at 15 µM: read-out: 15-μM inhibition (%)
T3 construct: expressed in transfected cells; host or cells: HMy2.CIR

HLA-A3303 = HLA-A3303 (Homo sapiens, UniProt P04439, A270S/D185E/E176V/E277Q/E87N/F33T/G231S/H175R/I121M/I218V/I322F/K168Q/L300P/L318F/M331R/P217A/Q86R/Q94H/R138Q/T323A/T345S/T97I/V358M); experiment: Peptide competitive binding assay, HMy2.CIR cells expressing A3303; settings: A3303, 24 h, 4°C, flow cytometry; for 5-μM inhibition (%): peptide 5 μM vs FITC-labeled reference peptide 300 nM; for 15-μM inhibition (%): peptide 15 μM vs FITC-labeled reference peptide 300 nM
[1] = A1101, class from inhibition at 5 and 15 μM of FITC-labeled reference peptide binding, read-out: Affinity
[2] = A0201, peptide 5 μM vs FITC-labeled reference peptide 300 nM, 24 h, 4°C, flow cytometry
[3] = A0201, peptide 15 μM vs FITC-labeled reference peptide 300 nM, 24 h, 4°C, flow cytometry

CC[C@H](C)[C@H](NC(=O)[C@H](CO)NC(=O)[C@@H](NC(=O)[C@@H]1CCCN1C(=O)[C@H](CO)NC(=O)[C@H](Cc1ccc(O)cc1)NC(=O)[C@H](CCSC)NC(=O)[C@@H](N)CCCNC(=N)N)C(C)C)C(=O)N[C@@H](CC(C)C)C(=O)O [Peptide P9]
inhibition at 5 µM (HLA-A0201; 24 h): 0% | inhibition at 15 µM (HLA-A0201; 24 h): 4.54% | IC50 (HLA-A0203): 5 to 15 µM | inhibition at 5 µM (HLA-A0203): 0% | inhibition at 15 µM (HLA-A0203): 50.1%

PYNTPVFAI [Peptide P63]
IC50 (HLA-A2402): 5 to 15 µM | inhibition at 5 µM (HLA-A2402): 25.7% | inhibition at 15 µM (HLA-A2402): 55.6%

WYIKIFIMI [Peptide P51]
5-μM inhibition (%) (HLA-A2402): 3.34% | 15-μM inhibition (%) (HLA-A2402): 29.97%

SILRGGKLDK [Peptide P30]
5-μM inhibition (%) (HLA-A1101; A1101): 19.77% | 15-μM inhibition (%) (HLA-A1101; A1101): 47.09%

NITGILLTR [Peptide P107]
5-μM inhibition (%) (HLA-A3303): 34.61% | 15-μM inhibition (%) (HLA-A3303): 49.22%

RTAHTNDVK [Peptide P39]
IC50 (HLA-A1101; [1]): < 5 µM | inhibition at 5 µM (HLA-A1101; A1101): 60.4% | inhibition at 15 µM (HLA-A1101; A1101): 86.2%

IVIWGKTPK [Peptide P43]
IC50 (HLA-A1101): < 5 µM | inhibition at 5 µM (HLA-A1101; A1101): 80.2% | inhibition at 15 µM (HLA-A1101; A1101): 90.1%

CTPAGYAILK [Peptide P23]
IC50 (HLA-A1101; [1]): < 5 µM | inhibition at 5 µM (HLA-A1101; A1101): 70.1% | inhibition at 15 µM (HLA-A1101; A1101): 88.1%

ATESIVIWGK [Peptide P36]
IC50 (HLA-A1101): < 5 µM | inhibition at 5 µM (HLA-A1101; A1101): 88.3% | inhibition at 15 µM (HLA-A1101; A1101): 90.7%

ELYPLTSLK [Peptide P29]
IC50 (HLA-A1101): < 5 µM | inhibition at 5 µM (HLA-A1101; A1101): 51.1% | inhibition at 15 µM (HLA-A1101; A1101): 79.9%

YWQATWIPEW [Peptide P60]
IC50 (HLA-A2402): < 5 µM | inhibition at 5 µM (HLA-A2402): 97.5% | inhibition at 15 µM (HLA-A2402): 97.8%

ITNWLWYIK [Peptide P20]
IC50 (HLA-A1101): < 5 µM | inhibition at 5 µM (HLA-A1101; A1101): 69.8% | inhibition at 15 µM (HLA-A1101; A1101): 71%

SVQCTHGIK [Peptide P25]
IC50 (HLA-A1101; [1]): < 5 µM | inhibition at 5 µM (HLA-A1101; A1101): 61.4% | inhibition at 15 µM (HLA-A1101; A1101): 85.6%

IWGKTPKFRL [Peptide P62]
5-μM inhibition (%) (HLA-A2402): 21.17% | 15-μM inhibition (%) (HLA-A2402): 37.66%

ALQDSGSEV [Peptide P18]
5-μM inhibition (%) (HLA-A0201; [2]): 15.88% | 15-μM inhibition (%) (HLA-A0201; [3]): 41.90%

GSNFTSAAVK [Peptide P37]
IC50 (HLA-A1101): < 5 µM | inhibition at 5 µM (HLA-A1101; A1101): 74% | inhibition at 15 µM (HLA-A1101; A1101): 91%

WYIKIFIII [Peptide P48]
5-μM inhibition (%) (HLA-A2402): 1.56% | 15-μM inhibition (%) (HLA-A2402): 6.91%

TTLFCASDAK [Peptide P28]
IC50 (HLA-A1101): < 5 µM | inhibition at 5 µM (HLA-A1101; A1101): 78.4% | inhibition at 15 µM (HLA-A1101; A1101): 92.2%

QTNSAILMQR [Peptide P105]
5-μM inhibition (%) (HLA-A3303): 29.22% | 15-μM inhibition (%) (HLA-A3303): 45.63%

MYSPVSILDI [Peptide P53]
IC50 (HLA-A2402): < 5 µM | inhibition at 5 µM (HLA-A2402): 75.5% | inhibition at 15 µM (HLA-A2402): 98.1%

MYSPTSILDI [Peptide P52]
IC50 (HLA-A2402): 5 to 15 µM | inhibition at 5 µM (HLA-A2402): 21.6% | inhibition at 15 µM (HLA-A2402): 79.4%

ALTDIVPLT [Peptide P12]
IC50 (HLA-A0201): 5 to 15 µM | inhibition at 5 µM (HLA-A0201; [2]): 28% | inhibition at 15 µM (HLA-A0201; [3]): 72.2%

IYKRWIILGL [Peptide P56]
5-μM inhibition (%) (HLA-A2402): 20.61% | 15-μM inhibition (%) (HLA-A2402): 25.51%

QTVYALFYR [Peptide P108]
5-μM inhibition (%) (HLA-A3303): 35.63% | 15-μM inhibition (%) (HLA-A3303): 40.50%

ASCDQCQLK [Peptide P38]
5-μM inhibition (%) (HLA-A1101; A1101): 12.62% | 15-μM inhibition (%) (HLA-A1101; A1101): 33.56%

IVKCFNCGK [Peptide P32]
5-μM inhibition (%) (HLA-A1101; A1101): 20.16% | 15-μM inhibition (%) (HLA-A1101; A1101): 36.81%

SLAEGEIII [Peptide P3]
IC50 (HLA-A0201; A0201, class from inhibition at 5 and 15 μM of FITC-labeled reference peptide binding, read-out: Affinity): 5 to 15 µM | inhibition at 5 µM (HLA-A0201; [2]): 26.1% | inhibition at 15 µM (HLA-A0201; [3]): 66.2% | IC50 (HLA-A0203; A0203, class from inhibition at 5 and 15 μM of FITC-labeled reference peptide binding, read-out: Affinity): 5 to 15 µM | inhibition at 5 µM (HLA-A0203; A0203, peptide 5 μM vs FITC-labeled reference peptide 300 nM, 4°C, flow cytometry): 0.12% | inhibition at 15 µM (HLA-A0203; A0203, peptide 15 μM vs FITC-labeled reference peptide 300 nM, 4°C, flow cytometry): 51.1%
